Results taken from patent US11407792B2, “Regulating electron flow using fragmented proteins” (WILLIAM MARSH RICE UNIVERSITY, priority 2017, dated 2022).

Experiments:
E. coli EW11 = E. coli EW11 growth complementation by native, split or engineered Fds; assay type: cell-based, Escherichia coli; conditions: after 24 hours; Fd expressed from an aTc-inducible promoter, FNR and SIR constitutive
Method: Growth assay. […] Optical density (OD) measurements were taken every 10 minutes.
To rapidly assay ET mediated by engineered Fds, an Escherichia coli sulfide auxotroph (EW11; Barstow et al., 2011), which cannot grow in minimal medium containing sulfate as a sulfur source unless it expresses a synthetic ET chain consisting of a Fd-NADP+ reductase (FNR) electron donor, a Fd electron carrier, and a Fd-dependent sulfite reductase (SIR) electron acceptor, was used (FIG. 25A). Endogenous oxidoreductases were systematically removed from the genome of this strain to insulate Fd-dependent redox pathways from native redox reactions (Barstow et al., 2011). To evaluate Fd ET, Zea mays FNR and SIR were constitutively expressed and a TetR-repressible promoter was used to control the expression of plant-type 2Fe-2S Fds. […]
With this expression strategy, the inventors can quickly assess which split Fds require two fragments to function in complementation assays by assessing growth in the presence and absence of both inducers because growth depended upon the level of anhydrotetracycline (aTc) (FIG. 25B), and thus, the amount of Fd available to mediate ET. […] For these experiments, they assessed split Fd function in the presence of a constant high concentration of aTc, and varying concentrations of IPTG, which selectively drive the distinct promoters. […]

[1] = Fish et al., 2005; cited from earlier work
[2] = tested on: lysates derived from E. coli EW11 expressing FNR and SIR; assay: Sulfide production assay in cell lysates (sulfidefluor-7 fluorescence); assay type: biochemical, Escherichia coli; conditions: y=0.7×+12.252, r^2=0.983
Method: Cell lysates. Electrocompetent E. coli EW11 were transformed with the plasmid (pSAC01) that constitutively expresses Zea mays FNR and SIR. Cells were grown to stationary phase at 37° C. and 250 rpm in 2×YTPG medium (16 g/L tryptone, 10 g/L yeast extract, 5 g/L NaCl, 3 g/L KH2PO4, 7 g/L K2HPO4, and 18 g/L glucose) containing 100 μg/mL streptomycin. Cells from overnight cultures were diluted 1:100 in fresh 2×YTPG medium containing streptomycin, grown for 2 hours at 37° C. while shaking at 250 rpm until mid-log phase, and then shifted to 30° C. and grown for an additional 4 hours. […] Protein content in lysates was quantified using Bio-Rad Protein Assay Dye Reagent Concentrate (Bio-Rad), using bovine serum albumin (NEB) as a standard.
Sulfide production assay. […] Following NADPH or protein addition, reactions were arrayed in a Corning 96 well plate at room temperature (Cost ar #3603), transferred to an Infinite m1000 Pro plate reader (Tecan), and heated to 37° C. and shaken at 250 rpm with fluorescence readings (λex=495 nm, λem=520 nm) every 15 seconds. […]
SIR activity was monitored in desalted cell lysates using sulfidefluor-7 (Lin et al., 2013), a fluorescent probe for hydrogen sulfide. […]

[3] = Midpoint potentials by protein film (square wave) voltammetry; assay type: physicochemical; conditions: relative to standard hydrogen electrode, pH 7.0, 23.5° C.
Method: Midpoint potentials. Electrochemical experiments were carried out anaerobically in a MBraun Labmaster glovebox using a PGSTAT12 potentiostat. A three-electrode configuration was used in a water-jacketed glass cell. A platinum wire was used as the counter electrode and a standard calomel electrode was used as the reference electrode. Reported potentials are relative to the standard hydrogen electrode. Baseline measurements were collected using an edge-plane graphite (EPG) electrode that was modified with a 100 mM neomycin trisulfate solution, rinsed, and placed into a glass cell containing a 23.5° C. mixed buffer solution (5 mM acetate/MES/MOPS/TAPS/CHES/CAPS) pH 7.0, with 100 mM NaCl. A 5 μL aliquot of 720 μM Ml-Fd or 5 mM sFd-35-ER was applied directly to the electrode surface with or without 1 μL of 50 mM 4-HT, the protein was allowed to […] for approximately one minute at room temperature before being placed into the buffer cell solution. Square wave voltammograms were collected at 23.5° C. with a frequency of 10 Hz and electrochemical signals were analyzed using QSoas.
To investigate if domain insertion affects the reduction potential of Ml-Fd, Ml-Fd and sFd-35-ER were characterized using protein film voltammetry. In the absence of 4-HT, the midpoint potentials of both Ml-Fd and sFd-35-ER (FIG. 27C) were −336 and −320 mV, respectively. […]

sFd-35-ER = assay: Complementation of E. coli EW11 growth by sFd-35-ER with 4-HT and other estrogen receptor modulators; assay type: cell-based, Escherichia coli; conditions: for Activation of sFd-35-ER ET (growth complementation): agonists, antagonists and an endocrine disruptor; for Effect of estrogen receptor modulators on complementation of E. coli EW11 by sFd-35-ER, compared to DMSO alone: modulator 50 μM, 200 ng/mL aTc
Method: Growth assay. For all growth experiments, E. coli EW11 were freshly transformed with two plasmids, one encoding the e-donor and acceptor pair (FNR and SIR) and the other encoding either a native Fd, a C42A mutant of Ml Fd that is unable to coordinate a 2Fe-2S cluster, or an engineered Fd. Starter cultures were inoculated using single colonies obtained by selecting for colonies containing both plasmids on LB-agar plates. These starter cultures were grown in deep-well 96-well plates for 18 hours at 37° C. in 1 mL of a non-selective modified M9 medium (M9c), which contained sodium phosphate, dibasic (6.8 g/L), sodium phosphate, monobasic (3 g/L), sodium chloride (0.5 g/L), ammonium chloride (1 g/L), calcium chloride (0.1 mM), magnesium sulfate (10 mM), ferric citrate (24 mg/L), p-aminobenzoic acid (2 mg/L), inositol (20 mg/L), adenine (5 mg/L), uracil (20 mg/L), tryptophan (40 mg/L), tyrosine (1.2 mg/L), and the remaining 18 amino acids (80 mg/L each). For auxotroph complementation analysis, starter cultures that had been grown to stationary phase in M9c were diluted ˜1:100 using a 96-well replicator pin into 100 μL of a selective modified M9 medium (M9sa), which is identical to M9c but lacks cysteine and methionine. […] Optical density (OD) measurements were taken every 10 minutes. To select for the Fd and e-donor/acceptor plasmids, all growth steps included chloramphenicol and streptomycin at 34 μg/mL and 100 μg/mL, respectively.
To test whether this domain-insertion strategy can be used to diversify the chemical regulation of sFd-35, the ligand-binding domain (LBD) of the human estrogen receptor (ER) was inserted after residue 35 to create sFd-35-ER (FIG. 26E).
The activity of sFd-35-ER was evaluated by expressing this protein using an aTc-inducible promoter (FIG. 31B). […] This protein was also expressed as a fusion to RFP (sFd-35-ER-RFP) to evaluate how 4-HT affects protein expression.
To evaluate how these different modulators affect sFd-35-ER ET, sFd-35-ER growth complementation was evaluated in the presence of agonists, antagonists, and an endocrine disruptor (FIG. 32D).

[4] = Hirasawa et al., 2004; cited from earlier work

Ml-Fd: Thermostable plant-type 2Fe-2S ferredoxin of Mastigocladus laminosus, UniProt P00248, SEQ ID NO: 11
k1/2, growth complementation as a function of aTc (E. coli EW11): 1.8 ng/mL aTc
temperature of optimal ET [1]: 65 °C
rate of SF7 fluorescence with increasing concentrations of Ml-Fd [2]: linearly increasing rate
midpoint potential ([3]; absence of 4-HT): −336 mV
midpoint potential ([3]; presence of 4-HT): −330 mV

CC[C@H](c1ccc(O)cc1)[C@@H](CC)c1ccc(O)cc1 [hexestrol]
Activation of sFd-35-ER ET (growth complementation) (sFd-35-ER): not activated
Effect of estrogen receptor modulators on complementation of E. coli EW11 by sFd-35-ER, compared to DMSO alone (sFd-35-ER): do not significantly enhance growth

CC(C)(c1ccc(O)cc1)c1ccc(O)cc1 [bisphenol-A]
Activation of sFd-35-ER ET (growth complementation) (sFd-35-ER): activated
Effect of estrogen receptor modulators on complementation of E. coli EW11 by sFd-35-ER, compared to DMSO alone (sFd-35-ER): significantly enhance growth

Oc1ccc2c(c1)CC[C@H](c1ccccc1)[C@@H]2c1ccc(OCCN2CCCC2)cc1 [lasoxifene]
Activation of sFd-35-ER ET (growth complementation) (sFd-35-ER): activated
Effect of estrogen receptor modulators on complementation of E. coli EW11 by sFd-35-ER, compared to DMSO alone (sFd-35-ER): significantly enhance growth

B1: SIR: Zea mays Fd-dependent sulfite reductase, electron acceptor (protein, UniProt O23813 51-635, looked up)
Sulfite reductase …: VSAPAKKDASEVKRSKVEIIKEKSNFLRYPLNEELVSEAPNINESAVQLIKFHGSYQQTDRDVRGQKNYSFMLRTKNPCGKVPNQLYLAMDTLADEFGIGTLRLTTRQTFQLHGVLKKNLKTVLSTVIKNMGSTLGACGDLNRNVLAPAAPYVKKDILFAQQTAENIAALLTPQSGAYYDLWVDGEKIMSAEEPPEVTKARNDNSHGTNFPDSPEPIYGTQYLPRKFKVAVTAAGDNSVDILTNDIGVVVVSDDAGEPIGFNIYVGGGMGRTHRVETTFPRLADPLGYVPKEDILYAIKAIVVTQRENGRRDDRKYSRMKYMIDRWGIDRFRAEVEKYYGKKFESFRPLPEWQFNSYLGWQEQGDGKLFYGVHVDNGRVGGQAKKTLREIIEKYNLDVSITPNQNLILCGIDQAWREPITTALAQAGLLEPKDVDPLNLTAMACPALPLCPLAQTEAERGILPILKRIRAVFNKVGIKDSESVVVRITGCPNGCARPYMAELGFVGDGPKSYQIWLGGTPNQSTLAESFMDKVKLDDIEKVLEPLFTYWNGTRQEGESFGSFTNRTGFDKLKEVVNKWAESPSAA
[4Fe-4S] E° [4]: −415 mV
siroheme potential [4]: −285 mV
